What is called Solubility is how much of the substance goes into solution per volume.

Read-outs that look alike come from different tables or passages of the source.

Data set [1] can be described thus: Water-solubility test. Particulars: for Solubility: deionized water to saturation, 25° C., HPLC condition A; for Saturation pH: saturated solution in deionized water. The class given is physicochemical. Here is the method: The S-omeprazole strontium tetrahydrate of the present invention and the S-omeprazole magnesium trihydrate were each dissolved in deionized water to saturation. The water-solubility of each of the saturated solutions was analyzed by HPLC under the previously described condition A and the amount of each salt hydrate dissolved was measured.

The nature of data set [2]: Storage stability under long-term, accelerated aging and stressed conditions. The settings on record: 25° C./60% RH exposed; 40° C./75% RH exposed; 60° C./75% RH closed; 2 to 4 weeks. The data set is classed as physicochemical.
Data set [3] in a line: Hygroscopicity test. The class given is physicochemical. The settings on record: for Moisture content: exposed. Here is the method:
The inventive S-omeprazole strontium was exposed in the naked state at 25 to 40° C. and 40 to 90% relative humidity for a period of over 15 days. The moisture contents of the inventive salt measured with a Karl-Fisher titrator at storage time 0, 3, 7 and 15 days are shown in Table 4.

A short description of data set [4]: Heat stability test of the inventive salt. The class given is physicochemical. Particulars: for Amount of titrated S-omeprazole: sealed, 60° C. and 75% relative humidity. Here is the method: The salt of Example 1 was stored in the sealed state under a stressed condition of 60° C. and 75% relative humidity, and the remaining amounts of active S-omeprazole after 7, 14, 21 and 28 days were measured by HPLC condition A. The results are shown in Table 5.

Data set [5] deals with rats. Particulars: dose of 633 mg/kg/day; cited from earlier work.

Regarding `COc1ccc2[n-]c([S+]([O-])Cc3ncc(C)c(OC)c3C)nc2c1.COc1ccc2[n-]c([S+]([O-])Cc3ncc(C)c(OC)c3C)nc2c1.O.O.O.[Mg+2]` (centres unmarked) [Magnesium trihydrate, S-Omeprazole Magnesium Trihydrate, reference compound], in data set [1], the Solubility came out at 1.5 mg/mL and the “Saturation pH” value was determined as 9.9.

Regarding `COc1ccc2nc([S@@+]([O-])Cc3ncc(C)c(OC)c3C)[nH]c2c1` [S-omeprazole strontium tetrahydrate, S-omerprazole strontium tetrahydrate], the Stability on storage entry in data set [2] is “maintain the initial moisture content, purity and crystallinity”. In addition, the Solubility in data set [1] (25 °C, water, thermodynamic from solid, read-out: Solubility) is about 17.6 mg/mL; in data set [1], 17.6 mg/mL. In data set [1], the “Saturation pH” value was 10.2. Besides, the “Water solubility relative to S-omeprazole magnesium trihydrate” value in data set [1] (times higher than S-omeprazole magnesium trihydrate) is recorded as “at least 10 times”. Further, the Moisture content was determined as 9.0 wt % in data set [3] (40% relative humidity (25° C.), 0 day); 8.9 wt % in data set [3] (40% relative humidity (25° C.), 3 days); 8.7 wt % in data set [3] (40% relative humidity (25° C.), 7 days); 8.8 wt % in data set [3] (40% relative humidity (25° C.), 15 days); 9.0 wt % in data set [3] (60% relative humidity (25° C.), 0 day); 9.0 wt % in data set [3] (60% relative humidity (25° C.), 3 days). For the same compound, the Moisture content in data set [3] (60% relative humidity (25° C.), 7 days) was found to be 9.2 wt %; in data set [3] (60% relative humidity (25° C.), 15 days), 9.1 wt %; in data set [3] (75% relative humidity (40° C.), 0 day), 9.0 wt %; in data set [3] (75% relative humidity (40° C.), 3 days), 8.9 wt %; in data set [3] (75% relative humidity (40° C.), 7 days), 9.0 wt %; in data set [3] (75% relative humidity (40° C.), 15 days) it was 8.9 wt %. The Moisture content in data set [3] (90% relative humidity (35° C.), 0 day) worked out at 9.0 wt %; in data set [3] (90% relative humidity (35° C.), 3 days), 9.2 wt %; in data set [3] (90% relative humidity (35° C.), 7 days), 9.3 wt %; in data set [3] (90% relative humidity (35° C.), 15 days), 9.2 wt %. Moreover, the Hygroscopicity result in data set [3] (under a highly humid condition) is reported as “less hygroscopic”. Also, the Initial moisture content entry in data set [3] (under a low humidity condition) is “maintained”. Further, the “Amount of titrated S-omeprazole” value in data set [4] (7 days) stood at 997 µg/mg; in data set [4] (14 days), 998 µg/mg; in data set [4] (21 days), 997 µg/mg; in data set [4] (28 days), 997 µg/mg; in data set [4] (Initial) it was 997 µg/mg. Also, the Heat stability entry in data set [4] (summary of Table 5 (60° C., 75% relative humidity, sealed, up to 28 days)) is “highly stable”.

Turning to `[Sr+2]` [strontium, Strontium], the Safety entry in data set [5] is reported as “no safety problems”.

(Values after US8586752B1, “Crystalline S-omeprazole strontium hydrate, method for preparing same, and pharmaceutical composition containing same” (Hanmi Science Co., Ltd, priority 2005, dated 2013).)
